Results published in ChEMBL document CHEMBL1201862, “PubChem BioAssay data set” (2004).
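Growth conditions: 96-well plates. Treatment: test compound, 48 hours, 5 concentrations. Analysis: linear interpolation between bracketing concentrations; unreached endpoints set to highest concentration. Abbreviation: GI50, concentration required for 50% inhibition of growth.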 Active and inactive are the calls of the source. Rule as the data show it: active = GI50 up to about 1.1 µM and inactive = higher.

What was measured:
Experiment in all cases: inhibition of tumour cell growth, NCI panel, 48 h
HT-29 = system: HT-29
M14 = system: M14
CCRF-CEM = system: CCRF-CEM
OVCAR-5 = system: OVCAR-5
HCT-116 = system: HCT-116
OVCAR-8 = system: OVCAR-8
SN12C = system: SN12C
NCI-H23 = system: NCI-H23
SK-OV-3 = system: SK-OV-3
SNB-19 = system: SNB-19
HOP-62 = system: HOP-62
PC-3 = system: PC-3
SR = system: SR
A549 = system: A549
SNB-75 = system: SNB-75
MDA-N = system: MDA-N
LOX IMVI = system: LOX IMVI
EKVX = system: EKVX
DU-145 = system: DU-145

Compound	GI50 (HT-29)	GI50 (M14)	GI50 (CCRF-CEM)	GI50 (OVCAR-5)	GI50 (HCT-116)	GI50 (OVCAR-8)	GI50 (SN12C)	GI50 (NCI-H23)	GI50 (SK-OV-3)	GI50 (SNB-19)	GI50 (HOP-62)	GI50 (PC-3)	GI50 (SR)	GI50 (A549)	GI50 (SNB-75)	GI50 (MDA-N)	GI50 (LOX IMVI)	GI50 (EKVX)	GI50 (DU-145)
O=C1NCCCNCCCNCCCNC(=O)c2cccc1n2	> 100 µM (inactive)	> 100 µM (inactive)	> 100 µM (inactive)	> 100 µM (inactive)	> 100 µM (inactive)	> 100 µM (inactive)	> 100 µM (inactive)	> 100 µM (inactive)	> 100 µM (inactive)	> 100 µM (inactive)	> 100 µM (inactive)	> 100 µM (inactive)	> 100 µM (inactive)	> 100 µM (inactive)	> 100 µM (inactive)	> 100 µM (inactive)	> 100 µM (inactive)	> 100 µM (inactive)	–
O=[N+]([O-])c1ccc(Cc2nc3cc4ccccc4cc3[nH]2)cc1C(F)(F)F	14.3 µM (inactive)	12.4 µM (inactive)	24.3 µM (inactive)	14.4 µM (inactive)	13.9 µM (inactive)	19 µM (inactive)	18.7 µM (inactive)	12.5 µM (inactive)	13.5 µM (inactive)	15.6 µM (inactive)	13.8 µM (inactive)	15.4 µM (inactive)	–	13.9 µM (inactive)	14.9 µM (inactive)	–	18.5 µM (inactive)	25.8 µM (inactive)	22.1 µM (inactive)
CC1=NN(c2nc(N)nc(CC#N)n2)C(C)(C)C1	> 100 µM (inactive)	> 100 µM (inactive)	> 100 µM (inactive)	–	> 100 µM (inactive)	> 100 µM (inactive)	–	> 100 µM (inactive)	> 100 µM (inactive)	> 100 µM (inactive)	> 100 µM (inactive)	> 100 µM (inactive)	> 100 µM (inactive)	–	> 100 µM (inactive)	–	> 100 µM (inactive)	> 100 µM (inactive)	> 100 µM (inactive)
COc1ccc(-c2cc(-c3ccccc3)nc(N)c2-c2ccc3ccccc3c2)cc1	1 µM (active)	2.53 µM (inactive)	3.13 µM (inactive)	1.77 µM (inactive)	1.24 µM (inactive)	1.66 µM (inactive)	1.86 µM (inactive)	1.86 µM (inactive)	3.84 µM (inactive)	1.18 µM (inactive)	2.3 µM (inactive)	2.22 µM (inactive)	2.15 µM (inactive)	2.21 µM (inactive)	2.3 µM (inactive)	1.6 µM (inactive)	1.72 µM (inactive)	1.83 µM (inactive)	–
COc1cc2nc(-c3cccs3)nc(N3CCN(c4ccccc4)CC3)c2cc1OC	> 100 µM (inactive)	> 100 µM (inactive)	–	> 100 µM (inactive)	> 100 µM (inactive)	> 100 µM (inactive)	> 100 µM (inactive)	> 100 µM (inactive)	> 100 µM (inactive)	68.1 µM (inactive)	> 100 µM (inactive)	> 100 µM (inactive)	> 100 µM (inactive)	> 100 µM (inactive)	> 100 µM (inactive)	–	> 100 µM (inactive)	> 100 µM (inactive)	> 100 µM (inactive)
CN(NC(=O)c1cccs1)C1=NCCCCN1	> 100 µM (inactive)	> 100 µM (inactive)	> 100 µM (inactive)	> 100 µM (inactive)	> 100 µM (inactive)	> 100 µM (inactive)	–	> 100 µM (inactive)	> 100 µM (inactive)	> 100 µM (inactive)	> 100 µM (inactive)	> 100 µM (inactive)	> 100 µM (inactive)	> 100 µM (inactive)	> 100 µM (inactive)	> 100 µM (inactive)	> 100 µM (inactive)	> 100 µM (inactive)	–
CCC1OC2C(CC=C(C)C)=C3OC(C)(O)C(C)(CC)C(O)C3=C3OC(=O)C=C1C32 (centres undefined)	–	30.8 µM (inactive)	33.6 µM (inactive)	74.8 µM (inactive)	26.6 µM (inactive)	–	–	21.6 µM (inactive)	> 100 µM (inactive)	54.6 µM (inactive)	–	68.5 µM (inactive)	–	37.6 µM (inactive)	–	–	12.4 µM (inactive)	35.6 µM (inactive)	50.5 µM (inactive)
